Experimental data from ChEMBL document CHEMBL3758179, “Baicalin Alleviates Silica-Induced Lung Inflammation and Fibrosis by Inhibiting the Th17 Response in C57BL/6 Mice” (2015).
Activity calls are given as the source filed them. No cut-off for these calls is given here.

Assays:
[1] = tested on: Mus musculus; test: Induction of Treg response in silica-induced C57BL/6 mouse lung inflammation and fibrosis model assessed as increase in Foxp3 mRNA expression in spleen at 2 mg, ip administered every day measured on day 7, 28 by real time RT-PCR method relative to silica-treated control; format: functional, organism-based
[2] = tested on: Mus musculus; test: Antiinflammatory activity in C57BL/6 mouse silicosis model assessed as silica-induced accumulation of lymphocytes in bronchoalveolar lavage fluid at 2 mg, ip administered every day measured on day 7,28 and 56 by Giemsa staining method; format: functional, organism-based
[3] = tested on: Mus musculus; test: Inhibition of Th17 cell differentiation in silica-induced C57BL/6 mouse lung inflammation and fibrosis model assessed as decrease in IL-6 mRNA expression in lung at 2 mg, ip administered every day measured on day 28, 56 by real time RT-PCR method relative to silica-treated control; format: functional, organism-based
[4] = tested on: Mus musculus; test: Inhibition of silica-induced lung fibrosis in C57BL/6 mouse silicosis model at 2 mg, ip administered every day measured on day 28 to 56 by Masson staining-based light microscopic analysis; format: functional, organism-based
[5] = tested on: Mus musculus; test: Inhibition of Th17 cell differentiation in silica-induced C57BL/6 mouse lung inflammation and fibrosis model assessed as increase in IL-23 mRNA expression in lung at 2 mg, ip administered every day measured on day 28, 56 by real time RT-PCR method relative to silica-treated control; format: functional, organism-based
[6] = tested on: Mus musculus; test: Inhibition of Th17 cell differentiation in silica-induced C57BL/6 mouse lung inflammation and fibrosis model assessed as increase in IL-23 mRNA expression in lung at 2 mg, ip administered every day measured on day 7 by real time RT-PCR method relative to silica-treated control; format: functional, organism-based
[7] = tested on: Mus musculus; test: Induction of Treg response in silica-induced C57BL/6 mouse lung inflammation and fibrosis model assessed as increase in TGF-beta mRNA expression at 2 mg, ip administered every day measured on day 7 by real time RT-PCR method relative to silica-treated control; format: functional, organism-based
[8] = tested on: Mus musculus; test: Induction of Treg response in silica-induced C57BL/6 mouse lung inflammation and fibrosis model assessed as increase in level of CD4+T cells coexpressing Foxp3 in hilar lymph node at 2 mg, ip administered every day measured on day 7 by flow cytometric analysis (reference value: 12.14 +/- 0.53%); format: functional, CD4+T cell
[9] = tested on: Mus musculus; test: Induction of Treg response in silica-induced C57BL/6 mouse lung inflammation and fibrosis model assessed as increase in level of CD4+T cells coexpressing Foxp3 in spleen at 2 mg, ip administered every day measured on day 28 by flow cytometric analysis (reference value: 10.88 +/- 0.55 %); format: functional, CD4+T cell
[10] = tested on: Mus musculus; test: Induction of Treg response in silica-induced C57BL/6 mouse lung inflammation and fibrosis model assessed as increase in IL-10 mRNA expression in lung at 2 mg, ip administered every day measured on day 7, 28 by real time RT-PCR method relative to silica-treated control; format: functional, organism-based
[11] = tested on: Mus musculus; test: (§1) Inhibition of Th17 cell differentiation in silica-induced C57BL/6 mouse lung inflammation and fibrosis model assessed as decrease in IL-6 protein level in bronchoalveolar lavage fluid at 2 mg, ip administered every day measured on day 28 to 56 by cytometric bead array method; format: functional, organism-based
[12] = tested on: Mus musculus; test: Inhibition of Th17 response in spleen in silica-induced C57BL/6 mouse lung inflammation and fibrosis model assessed as decrease in level of CD4+T cells coexpressing IL-17A at 2 mg, ip administered every day measured on day 56 by flow cytometric analysis (reference value: 0.6 +/- 0.03%); format: functional, CD4+T cell
[13] = tested on: Mus musculus; test: Antiinflammatory activity in C57BL/6 mouse silicosis model assessed as reduction in silica-induced accumulation of neutrophils in bronchoalveolar lavage fluid at 2 mg, ip administered every day measured on day 7 by Giemsa staining method; format: functional, organism-based
[14] = tested on: Mus musculus; test: Induction of Treg response in silica-induced C57BL/6 mouse lung inflammation and fibrosis model assessed as increase in level of CD4+T cells coexpressing Foxp3 in spleen at 2 mg, ip administered every day measured on day 7 by flow cytometric analysis (reference value: 11.75 +/- 1.03%); format: functional, CD4+T cell
[15] = tested on: Mus musculus; test: Induction of Treg response in silica-induced C57BL/6 mouse lung inflammation and fibrosis model assessed as increase in level of CD4+T cells coexpressing Foxp3 in hilar lymph node at 2 mg, ip administered every day measured on day 56 by flow cytometric analysis (reference value: 8.76 +/- 0.23%); format: functional, CD4+T cell
[16] = tested on: Mus musculus; test: Inhibition of Th17 response in silica-induced C57BL/6 mouse lung inflammation and fibrosis model assessed as decrease in RORgammat mRNA expression in spleen at 2 mg, ip administered every day measured on day 7, 28, 56 by real time RT-PCR method relative to silica-treated control; format: functional, organism-based
[17] = tested on: Mus musculus; test: Inhibition of Th1 response in silica-induced C57BL/6 mouse lung inflammation and fibrosis model assessed as decrease in level of CD4+T cells coexpressing IFNgamma at 2 mg, ip administered every day measured on day 7 by flow cytometric analysis; format: functional, organism-based; details: CD4+T cell
[18] = tested on: Mus musculus; test: Inhibition of Th1 response in silica-induced C57BL/6 mouse lung inflammation and fibrosis model assessed as decrease in TNFalpha mRNA expression in bronchoalveolar lavage fluid at 2 mg, ip administered every day measured on day 7 by real time RT-PCR method; format: functional, organism-based
[19] = tested on: Mus musculus; test: Inhibition of Th17 response in spleen in silica-induced C57BL/6 mouse lung inflammation and fibrosis model assessed as decrease in level of CD4+T cells coexpressing IL-17A at 2 mg, ip administered every day measured on day 7 by flow cytometric analysis (reference value: 0.9 +/- 0.11%); format: functional, CD4+T cell
[20] = tested on: Mus musculus; test: Antiinflammatory activity in C57BL/6 mouse silicosis model assessed as silica-induced accumulation of macrophages in bronchoalveolar lavage fluid at 2 mg, ip administered every day measured on day 7,28 and 56 by Giemsa staining method; format: functional, organism-based
[21] = tested on: Mus musculus; test: as §1, with “7” for “28 to 56”, “method relative to silica-treated control” for “method”; format: functional, organism-based
[22] = tested on: Mus musculus; test: Induction of Treg response in silica-induced C57BL/6 mouse lung inflammation and fibrosis model assessed as increase in level of CD4+T cells coexpressing Foxp3 in spleen at 2 mg, ip administered every day measured on day 56 by flow cytometric analysis (reference value: 10 +/- 0.53 %); format: functional, CD4+T cell
[23] = tested on: Mus musculus; test: Inhibition of Th17 cell differentiation in silica-induced C57BL/6 mouse lung inflammation and fibrosis model assessed as decrease in IL-6 mRNA expression in lung at 2 mg, ip administered every day measured on day 7 by real time RT-PCR method relative to silica-treated control; format: functional, organism-based
[24] = tested on: Mus musculus; test: Antiinflammatory activity in C57BL/6 mouse silicosis model assessed as reduction in inflammatory cell infiltration at 2 mg, ip administered every day measured on day 7,28 and 56 by haematoxylin and eosin staining-based light microscopic analysis relative to silica-treated control; format: functional, organism-based
[25] = tested on: Mus musculus; test: Inhibition of Th17 response in spleen in silica-induced C57BL/6 mouse lung inflammation and fibrosis model assessed as decrease in level of CD4+T cells coexpressing IL-17A at 2 mg, ip administered every day measured on day 28 by flow cytometric analysis (reference value: 0.68 +/- 0.07%); format: functional, CD4+T cell
[26] = tested on: Mus musculus; test: Inhibition of Th1 response in silica-induced C57BL/6 mouse lung inflammation and fibrosis model assessed as decrease in IFN-gamma mRNA expression in lung at 2 mg, ip administered every day measured on day 7 by real time RT-PCR method relative to silica-treated control; format: functional, organism-based
[27] = tested on: Mus musculus; test: Inhibition of Th17 response in hilar lymph node in silica-induced C57BL/6 mouse lung inflammation and fibrosis model assessed as decrease in level of CD4+T cells coexpressing IL-17A at 2 mg, ip administered every day measured on day 7 by flow cytometric analysis (reference value: 1.08 +/- 0.07%); format: functional, CD4+T cell
[28] = tested on: Mus musculus; test: Inhibition of Th17 response in silica-induced C57BL/6 mouse lung inflammation and fibrosis model assessed as decrease in IL-17A mRNA expression in lung at 2 mg, ip administered every day measured on day 7 by real time RT-PCR method relative to silica-treated control; format: functional, organism-based
[29] = tested on: Mus musculus; test: Induction of Treg response in silica-induced C57BL/6 mouse lung inflammation and fibrosis model assessed as increase in level of CD4+T cells coexpressing Foxp3 in hilar lymph node at 2 mg, ip administered every day measured on day 28 by flow cytometric analysis (reference value: 8.18 +/- 0.61%); format: functional, CD4+T cell
[30] = tested on: Mus musculus; test: Inhibition of Th2 response in silica-induced C57BL/6 mouse lung inflammation and fibrosis model assessed as decrease in IL-4 level in bronchoalveolar lavage fluid at 2 mg, ip administered every day measured on day 7, 28, 56 by cytometric bead array method relative to silica-treated control; format: functional, organism-based
[31] = tested on: Mus musculus; test: Inhibition of Th17 response in hilar lymph node in silica-induced C57BL/6 mouse lung inflammation and fibrosis model assessed as decrease in level of CD4+T cells coexpressing IL-17A at 2 mg, ip administered every day measured on day 28 by flow cytometric analysis (reference value: 0.76 +/- 0.07%); format: functional, CD4+T cell
[32] = tested on: Mus musculus; test: Inhibition of Th2 response in silica-induced C57BL/6 mouse lung inflammation and fibrosis model assessed as decrease in GATA-3 mRNA expression in lung at 2 mg, ip administered every day measured on day 7, 56 by real time RT-PCR method relative to silica-treated control; format: functional, organism-based
[33] = tested on: Mus musculus; test: Inhibition of Th1 response in silica-induced C57BL/6 mouse lung inflammation and fibrosis model assessed as decrease in IFN-gamma mRNA expression in spleen at 2 mg, ip administered every day measured on day 7, 28 by real time RT-PCR method relative to silica-treated control; format: functional, organism-based
[34] = tested on: Mus musculus; test: Antiinflammatory activity in C57BL/6 mouse silicosis model assessed as reduction in alveolar wall change at 2 mg, ip administered every day measured on day 7,28 and 56 by haematoxylin and eosin staining-based light microscopic analysis relative to silica-treated control; format: functional, organism-based
[35] = tested on: Mus musculus; test: Antiinflammatory activity in C57BL/6 mouse silicosis model assessed as reduction in silica-induced accumulation of total cells in bronchoalveolar lavage fluid at 2 mg, ip administered every day measured on day 7,28 and 56 by Giemsa staining method; format: functional, organism-based
[36] = tested on: Mus musculus; test: Induction of Treg response in silica-induced C57BL/6 mouse lung inflammation and fibrosis model assessed as increase in Foxp3 mRNA expression in lung at 2 mg, ip administered every day measured on day 28, 56 by real time RT-PCR method relative to silica-treated control; format: functional, organism-based

Question: Which results are given for O=C(O)[C@H]1O[C@@H](Oc2cc3oc(-c4ccccc4)cc(=O)c3c(O)c2O)[C@H](O)[C@@H](O)[C@@H]1O [BAICALIN]?
Answer: Activity [1]: Active; Activity [2]: Active; inhibition [3]: inactive; inhibition [4]: Active; inhibition [5]: Active; inhibition [6]: inactive; Activity [7]: Active; Activity [8]: 15.92%; Activity [9]: 14.34%; Activity [10]: Active; inhibition [11]: inactive; IL-17A+ CD4+ T cells [12]: 0.4%; Activity [13]: Active; Activity [14]: 17.4%; Activity [15]: 10.3%; inhibition [16]: Active; inhibition [17]: Active; inhibition [18]: Active; IL-17A+ CD4+ T cells [19]: 0.42%; Activity [20]: inactive; inhibition [21]: Active; Activity [22]: 11.76%; inhibition [23]: Active; Activity [24]: Active; IL-17A+ CD4+ T cells [25]: 0.42%; inhibition [26]: Active; IL-17A+ CD4+ T cells [27]: 0.46%; inhibition [28]: Active; Activity [29]: 13.72%; inhibition [30]: Active; IL-17A+ CD4+ T cells [31]: 0.5%; inhibition [32]: Active; inhibition [33]: Active; Activity [34]: Active; Activity [35]: Active; Activity [36]: Active
